Assay: refractive index (Na D-line) (dimensionless); wn = mass fraction of the nth substance listed
Conditions: 101 kPa, Liquid, Standard Abbe refractometry

CCO [ethanol] + O
refractive index
Conditions	288.15 K	298.15 K	308.15 K	318.15 K
w1 = 0.02468	1.33491	1.33402	1.33282	1.33124
w1 = 0.0538	1.33686	1.33587	1.33455	1.33301
w1 = 0.07815	1.33854	1.33765	1.33619	1.33449
w1 = 0.1014	1.34032	1.33915	1.33771	1.3358
w1 = 0.1249	1.34209	1.34095	1.33923	1.33736
w1 = 0.1528	1.34443	1.34294	1.34104	1.33895
w1 = 0.1778	1.34627	1.34475	1.34272	1.34054
w1 = 0.2036	1.34829	1.34651	1.34435	1.3418
w1 = 0.225	1.34976	1.34781	1.34551	1.34311
w1 = 0.247	1.35137	1.34934	1.34682	1.34418
w1 = 0.2699	1.35281	1.35056	1.3479	1.34519
w1 = 0.2955	1.35435	1.35212	1.34922	1.3464
w1 = 0.3241	1.35595	1.35363	1.35053	1.34772
w1 = 0.3468	1.3572	1.3546	1.35164	1.34853
w1 = 0.3723	1.35843	1.35567	1.35252	1.34932
w1 = 0.3959	1.3597	1.35665	1.35342	1.34997
w1 = 0.4255	1.36073	1.35765	1.35448	1.35103
w1 = 0.4462	1.36161	1.35831	1.35501	1.35147
w1 = 0.4735	1.36235	1.35919	1.35566	1.35212
w1 = 0.4969	1.36316	1.35969	1.3562	1.35251
w1 = 0.5239	1.36378	1.36042	1.35667	1.35301
w1 = 0.5458	1.36431	1.36078	1.35731	1.3533
w1 = 0.5709	1.36482	1.36134	1.3577	1.35369
w1 = 0.5972	1.36547	1.36186	1.35801	1.35385
w1 = 0.6203	1.36582	1.36199	1.35825	1.35417
w1 = 0.6467	1.36603	1.36243	1.35839	1.3543
w1 = 0.6694	1.36636	1.36263	1.35867	1.35455
w1 = 0.6959	1.36665	1.36288	1.35875	1.35454
w1 = 0.7187	1.36663	1.36306	1.35892	1.35469
w1 = 0.7494	1.36702	1.36313	1.35895	1.35471
w1 = 0.7672	1.36703	1.36317	1.35902	1.35475
w1 = 0.7993	1.36694	1.36318	1.35879	1.35484
w1 = 0.8187	1.36705	1.3632	1.35887	1.35478
w1 = 0.8451	1.36683	1.36289	1.3586	1.35457
w1 = 0.867	1.36684	1.36278	1.35844	1.35421
w1 = 0.9028	1.36637	1.3623	1.35782	1.35374
w1 = 0.9235	1.36603	1.36196	1.35743	1.35333
w1 = 0.9481	1.36528	1.36123	1.35677	1.35255
w1 = 0.9752	1.36454	1.36037	1.3559	1.35171
w1 = 1	1.36344	1.35922	1.35477	1.35068
